From patent US6355633B1, “Aryl sulfonic acids and derivatives as FSH antagonists” (American Home Products Corporation, priority 1999, dated 2002)

biological target: T1, FSH receptor (Rattus norvegicus, UniProt P20395); assay: In Vitro Bio-test Procedure of Agonists and Antagonists to the FSH Receptor Using Primary Cultures of Rat Granulosa (estradiol secretion); format: cell-based; conditions: not given
T1 construct: endogenous in cells; host or cells: primary ovarian granulosa cells of DES-treated immature Sprague-Dawley rats
T1 sequence (P20395 18-692): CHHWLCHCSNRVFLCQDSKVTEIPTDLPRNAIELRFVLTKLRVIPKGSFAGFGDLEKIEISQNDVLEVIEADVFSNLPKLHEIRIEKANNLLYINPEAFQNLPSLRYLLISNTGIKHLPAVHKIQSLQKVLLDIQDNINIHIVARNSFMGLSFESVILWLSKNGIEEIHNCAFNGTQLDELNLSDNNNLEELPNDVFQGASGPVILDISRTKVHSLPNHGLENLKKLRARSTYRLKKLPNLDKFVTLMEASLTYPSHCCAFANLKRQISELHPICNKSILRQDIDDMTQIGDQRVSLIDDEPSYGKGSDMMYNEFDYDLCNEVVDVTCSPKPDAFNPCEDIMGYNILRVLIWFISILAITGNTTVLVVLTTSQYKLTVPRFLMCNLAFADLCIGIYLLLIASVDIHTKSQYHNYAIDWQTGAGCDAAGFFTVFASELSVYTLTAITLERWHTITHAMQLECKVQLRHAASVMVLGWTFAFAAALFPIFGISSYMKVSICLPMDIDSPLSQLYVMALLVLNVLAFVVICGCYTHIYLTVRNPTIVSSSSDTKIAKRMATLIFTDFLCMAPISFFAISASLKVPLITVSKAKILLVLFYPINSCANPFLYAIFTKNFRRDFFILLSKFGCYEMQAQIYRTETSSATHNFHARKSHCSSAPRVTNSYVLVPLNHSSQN
Procedure: In Vitro Bio-test Procedure of Agonists and Antagonists to the FSH Receptor Using Primary Cultures of Rat Granulosa
Materials and Methods: Reagents
The concentration of vehicle was maintained constant throughout all dilutions.
Preparation of Granulosa Cells: Twenty-four day-old immature female Sprague-Dawley rats (Charles River Laboratories, Wilmington, Mass.) were used as donors for ovarian granulosa cells. The animals were treated by single daily injections of 100 mg/kg diethylstilbestrol (DES) in oil over three days. On the fourth day, animals were sacrificed by CO2 asphyxiation and the ovaries were removed. Ovaries were washed three times in 50 mL of sterile HEPES-buffered saline (HBS, pH 7.4). Granulosa cells were harvested by incubating ovaries in a hypertonic medium consisting of serum-free McCoy*s SA medium (Gibco Life Sciences, Grand Island, N.Y.) supplemented with […], […], 5 ng/mL sodium selenite (ITS, Sigma Chemical Co., St. Louis Mo.), […] L-glutamine, 100 nM testosterone, 100 nM DES and 100 U/mL penicillin/[…]/250 ng/mL amphotericin B (antibiotic/antimycotic, Gibco) containing 0.5 M sucrose and 0.1 mM EGTA. Ovaries were then incubated for 45 min. at 37 C. in a humidified incubator gassed with 95% air/5% CO2. They were washed 3 times with 10 mL isotonic medium (hypertonic medium without sucrose and EGTA) and incubated another 45 min. in isotonic medium at 37 C. Granulosa cells were harvested by squeezing the ovaries between two sterile glass microscope slides. Isolated granulosa cells were then placed in an 50 mL centrifuge tube and washed two times by the addition of 50 mL serum-free McCoy*s 5A medium followed by centrifugation at 700×g for 5 min. After the final spin, the cells were resuspended by gentle trituration in 25 mL serum-free medium, an aliquot counted in a hemocytometer and viability estimated by trypan blue exclusion. Cells were plated into 24-well Nunc tissue culture plates at 200,000 viable cells/well in […].
Procedure: Following plating of the cells, the plates are incubated at 37 C for 2-4 hours at which time the treatments are added to the cells. Treatments are added to the wells at 2× the desired final concentration in […] in isotonic medium containing 0.2% BSA. The cells are incubated at 37 C. for 72 h. At the end of the incubation period, the medium is removed from the wells and tested for estradiol concentration by radioimmunoassay.
Experimental Groups: In the 24-well format, the plate was divided into 6 columns of 4 wells/column. One plate per compound was used to test either agonist or antagonist modes. […]
Four different doses of compound were tested in the antagonist mode. In addition, one column was used for a negative control (vehicle alone) and the other remaining column for a positive control (ED50 of FSH alone).
The doses of compound chosen to test were extrapolated from the initial functional screening process. Along with the plates testing compounds, another plate was run in parallel using a dose-response of FSH (0.01-100 ng/mL) as a positive control.
Analysis of Results: Estradiol was expressed as pg/mL. Estradiol secretion in agonist mode, or the ability of the compound to inhibit FSH-induced estradiol secretion in antagonist, was compared to the appropriate negative and positive controls. Data were analyzed statistically by analysis of variance with Huber weighting of log transformed data. Paired differences were determined using the LSD test
Reference Compounds: Test compounds were compared to the effect of purified or recombinant human FSH.

Question: For COCCOCCOc1ccc(C(=O)Nc2ccc(/C=C/c3ccc(NC(=O)c4ccc(OCCOCCOC)c(S(=O)(=O)N5CCOCC5)c4)cc3S(=O)(=O)O)c(S(=O)(=O)O)c2)cc1S(=O)(=O)N1CCOCC1 [Example 30a, 2,2′-[(E)-1,2-Ethenediyl]bis[5-[[4-[2-(2-methoxyethoxy)ethoxy]-3-(4-morpholinylsulfonyl)benzoyl]amino]benzenesulfonic Acid]], which IC50 is on record?
Answer: Its IC50 is 1900 nM.

Question: CS(=O)(=O)c1ccc(C(=O)Nc2ccc(/C=C/c3ccc(NC(=O)c4ccc(S(C)(=O)=O)c(S(=O)(=O)N5CCOCC5)c4)cc3S(=O)(=O)O)c(S(=O)(=O)O)c2)cc1S(=O)(=O)N1CCOCC1 [Example 30d, 2,2′-[(E)-1,2-Ethenediyl]bis[5-[[4-(methylsulfonyl)-3-(4-morpholinylsulfonyl)benzoyl]amino]benzenesulfonic Acid]] was tested. Which IC50 did it give?
Answer: The IC50 was 2800 nM.

Question: With CSc1ccc(C(=O)Nc2ccc(/C=C/c3ccc(NC(=O)c4ccc(S(C)(=O)=O)c([N+](=O)[O-])c4)cc3S(=O)(=O)O)c(S(=O)(=O)O)c2)cc1S(=O)(=O)N1CCOCC1 [Example 30e] as the compound, how does the IC50 read?
Answer: Its IC50 is 1800 nM.

Question: COCCNS(=O)(=O)c1cc(C(=O)Nc2ccc(/C=C/c3ccc(NC(=O)c4ccc(S(C)(=O)=O)c([N+](=O)[O-])c4)cc3S(=O)(=O)O)c(S(=O)(=O)O)c2)ccc1OC [Example 30f] was tested. Which IC50 did it give?
Answer: Its IC50 is 8000 nM.

Question: Which IC50 does the source give for COc1ccc(C(=O)Nc2ccc(/C=C/c3ccc(NC(=O)c4ccc(OC)c(S(=O)(=O)N5CCS(=O)(=O)CC5)c4)cc3S(=O)(=O)O)c(S(=O)(=O)O)c2)cc1S(=O)(=O)N1CCS(=O)(=O)CC1 [Example 30k, 2,2′-[(E)-1,2-Ethenediyl]bis[5-[[3-[(1,1-dioxido-4-thiomorpholinyl)sulfonyl]-4-methoxybenzoyl]amino]benzenesulfonic Acid]] here?
Answer: The IC50 was 3100 nM.

Question: With COCCNS(=O)(=O)c1cc(C(=O)Nc2ccc(/C=C/c3ccc(NC(=O)c4ccc(OC)c(S(=O)(=O)NCCOC)c4)cc3S(=O)(=O)O)c(S(=O)(=O)O)c2)ccc1OC [Example 30m, 2,2′-[(E)-1,2-Ethenediyl]bis[5-[[4-methoxy-3-[[(2-methoxyethyl)amino]sulfonyl]benzoyl]amino]benzenesulfonic Acid]] as the compound, how does the IC50 read?
Answer: Its IC50 is 6700 nM.

Question: For CS(=O)(=O)c1ccc(C(=O)Nc2ccc(/C=C/c3ccc(NC(=O)c4ccc(S(C)(=O)=O)cc4)cc3S(=O)(=O)O)c(S(=O)(=O)O)c2)cc1 [Example 30q, 2,2′-[(E)-1,2-Ethenediyl]bis[5-[[4-(methylsulfonyl)benzoyl]amino]benzenesulfonic Acid]], which IC50 is on record?
Answer: Its IC50 is 1300 nM.

Question: For O=C(Nc1ccc(/C=C/c2ccc(NC(=O)c3ccc(OC4CCOCC4)c(S(=O)(=O)N4CCOCC4)c3)cc2S(=O)(=O)O)c(S(=O)(=O)O)c1)c1ccc(OC2CCOCC2)c(S(=O)(=O)N2CCOCC2)c1 [Example 30r, 2,2′-[(E)-1,2-Ethenediyl]bis[5-[[3-(4-morpholinylsulfonyl)-4-[(tetrahydro-2H-pyran-4-yl)oxy]benzoyl]amino]benzenesulfonic Acid]], which IC50 is on record?
Answer: Its IC50 is 1100 nM.

Question: For COc1ccc(C(=O)Nc2ccc(/C=C/c3ccc(NC(=O)c4ccc(OC)c(S(=O)(=O)N5CCOCC5)c4)cc3S(=O)(=O)O)c(S(=O)(=O)O)c2)cc1S(=O)(=O)N1CCOCC1 [Example 30s, 2,2′-[(E)-1,2-Ethenediyl]bis[5-[[4-methoxy-3-(4-morpholinylsulfonyl)benzoyl]amino]benzenesulfonic Acid]], which IC50 is on record?
Answer: Its IC50 is 1200 nM.

Question: How did the IC50 turn out when COCCOc1ccc(C(=O)Nc2ccc(/C=C/c3ccc(NC(=O)c4ccc(OCCOC)c(S(=O)(=O)N5CCOCC5)c4)cc3S(=O)(=O)O)c(S(=O)(=O)O)c2)cc1S(=O)(=O)N1CCOCC1 [Example 30t, 2,2′-[(E)-1,2-Ethenediyl]bis[5-[[4-(2-methoxyethoxy)-3-(4-morpholinylsulfony)benzoyl]amino]benzenesulfonic Acid]] was run?
Answer: The IC50 was 1400 nM.

Question: CCS(=O)(=O)c1ccc(C(=O)Nc2ccc(/C=C/c3ccc(NC(=O)c4ccc(S(=O)(=O)CC)cc4)cc3S(=O)(=O)O)c(S(=O)(=O)O)c2)cc1 [Example 32f, 2,2′-[(E)-1,2-Ethenediyl]bis[5-[[4-(ethylsulfonyl)benzoyl]amino]benzenesulfonic Acid]] was tested. Which IC50 did it give?
Answer: Its IC50 is 2800 nM.

Question: Which IC50 does the source give for COc1ccc(C(=O)Nc2ccc(/C=C/c3ccc(NC(=O)c4ccc(OC)c(S(=O)(=O)N5CCSCC5)c4)cc3S(=O)(=O)O)c(S(=O)(=O)O)c2)cc1S(=O)(=O)N1CCSCC1 [Example 33d, 2,2′-[(E)-1,2-Ethenediyl]bis[5-[[4-methoxy-3-(4-thiomorpholinylsulfonyl)benzoyl]amino]benzenesulfonic Acid]] here?
Answer: The IC50 was 10000 nM.

Question: How did the IC50 turn out when COc1ccc(C(=O)Nc2ccc(/C=C/c3ccc(NC(=O)c4ccc(OC)c(S(=O)(=O)N5CCCC5)c4)cc3S(=O)(=O)O)c(S(=O)(=O)O)c2)cc1S(=O)(=O)N1CCCC1 [Example 33e, 2,2′-[(E)-1,2-Ethenediyl]bis[5-[[4-methoxy-3-(1-pyrrolidinylsulfonyl)benzoyl]amino]benzenesulfonic Acid]] was run?
Answer: The IC50 was 2100 nM.

Question: COc1ccc(C(=O)Nc2ccc(/C=C/c3ccc(NC(=O)c4ccc(OC)c(S(=O)(=O)N5CCN(C(C)=O)CC5)c4)cc3S(=O)(=O)O)c(S(=O)(=O)O)c2)cc1S(=O)(=O)N1CCN(C(C)=O)CC1 [Example 34a, 2,2′-[(E)-1,2-Ethenediyl]bis[5-[[3-[(4-acetyl-1-piperazinyl)sulfonyl]-4-methoxybenzoyl]amino]benzenesulfonic Acid]] was tested. Which IC50 did it give?
Answer: The IC50 was 57000 nM.

Question: Which IC50 does the source give for COc1ccc(C(=O)Nc2ccc(/C=C/c3ccc(NC(=O)c4ccc(OC)c(S(=O)(=O)N5CCN(C=O)CC5)c4)cc3S(=O)(=O)O)c(S(=O)(=O)O)c2)cc1S(=O)(=O)N1CCN(C=O)CC1 [Example 34b, 2,2′-[(E)-1,2-Ethenediyl]bis[5-[[3-[(4-formyl-1-piperazinyl)sulfonyl]-4-methoxybenzoyl]amino]benzenesulfonic Acid]] here?
Answer: The IC50 was 4900 nM.

Question: Which IC50 does the source give for COc1ccc(C(=O)Nc2ccc(CCc3ccc(NC(=O)c4ccc(S(C)(=O)=O)cc4)cc3S(=O)(=O)O)c(S(=O)(=O)O)c2)cc1S(=O)(=O)N1CCOCC1 [Example 43a, 5-[[4-Methoxy-3-(4-morpholinylsulfonyl)benzoyl]amino]-2-[2-[4-[[4-(methylsulfonyl)benzoyl]amino]-2-sulfophenyl]ethyl]benzenesulfonic Acid] here?
Answer: Its IC50 is 17000 nM.

same assay, conditions: antagonist mode, inhibition of FSH-induced estradiol secretion (ED50 of FSH, 0.5 ng/mL), rat granulosa cells, 72 h

Question: “2,2′-[(E)-1,2-Ethenediyl]bis[5-[[4-(methylthio)-3-(4-morpholinylsulfonyl)benzoyl]amino]benzenesulfonic Acid] [Example 30b]” was tested. Which IC50 did it give?
Answer: The IC50 was 1500 nM.

Question: CS(=O)(=O)c1ccc(C(=O)Nc2ccc(/C=C/c3ccc(NC(=O)c4ccc(S(C)(=O)=O)c([N+](=O)[O-])c4)cc3S(=O)(=O)O)c(S(=O)(=O)O)c2)cc1[N+](=O)[O-] [Example 30c, 2.2′-[(E)-1,2-Ethenediyl]bis[5-[[(4-methylsulfonyl)-3-(nitro)-benzoyl]amino]benzenesulfonic Acid]] was tested. Which IC50 did it give?
Answer: The IC50 was 3800 nM.

Question: Which IC50 does the source give for COc1ccc(C(=O)Nc2ccc(/C=C/c3ccc(NC(=O)c4ccc(S(C)(=O)=O)cc4)cc3S(=O)(=O)O)c(S(=O)(=O)O)c2)cc1S(=O)(=O)N1CCOCC1 [Example 30g] here?
Answer: Its IC50 is 2400 nM.
